Tests used:
[1] = Isothermal fluorescence titration (IFT), LMWH; assay type: binding; conditions: for affinity for LMWH: IFT, both COOH-terminal peptides compared
Method: (§1) To study the interaction between CXCL9(74-93) and GAGs, titration experiments were performed as described by Gerlza et al. ([46]) using TAMRA-labeled synthetic CXCL9(74-93), TAMRA-labeled synthetic CXCL9(74-103), HS (Iduron BN1, Manchester, UK), low molecular weight heparin (LMWH; Iduron BN5), and chondroitin sulfate (CS; Carbosynth, Compton, UK).

[2] = Isothermal fluorescence titration (IFT), HS; assay type: binding; conditions: for affinity for HS: IFT, both COOH-terminal peptides compared
Method: as §1

[3] = Isothermal fluorescence titration (IFT), CS; assay type: binding; conditions: for Kd: isothermal fluorescence titration, TAMRA-labeled peptide, read-out: affinity (KD) for CS
Method: as §1

[4] = tested on: CXCL8(1-77) binding to heparin; assay: Competition with CXCL8 for binding to immobilized heparin (ELISA-like); design: species or system human; conditions: heparin-coated plates, CXCL8(1-77) 0-300 nM, 2 h at 37°C; anti-CXCL8 detection, 450 nm; n ≥ 4; Figure 3A
Method: (§2) The ability of the COOH-terminal peptides of CXCL9 and CXCL4 to compete for GAG binding with the inflammatory chemokines CXCL8 and CXCL1 was evaluated on heparin-binding plates [BD Biosciences or produced by Jason Whittle (School of Engineering/Future Industries Institute, University of South Australia, Australia)] ([42], [47]). In brief, GAGs (heparin, HS, and CS; Iduron; 25 µg/ml) were coated overnight at room temperature. Dilutions of COOH-terminal CXCL9 or CXCL4 peptide combined with recombinant human CXCL8(1-77) or recombinant murine CXCL1(1-72) (Peprotech, Rocky Hill, NJ, USA) were added in duplicate and incubated for 2 h at 37°C. Subsequently, bound CXCL8 or CXCL1 was detected with biotinylated polyclonal rabbit anti-human CXCL8 or biotinylated polyclonal goat anti-mouse CXCL1 (Peprotech) and horse radish peroxidase-labeled streptavidin. Finally, the peroxidase activity was quantified at 450 nm.
(§3) Figure 3 CXCL9(74-93) competes with CXCL8 for binding to heparin, heparan sulfate (HS), and cellular glycosaminoglycans (GAGs). Competition between CXCL8 and COOH-terminal CXCL9 or CXCL4 peptides for binding to immobilized heparin (A) or HS (B) and to Chinese hamster ovary (CHO) cells (C) was performed. […] Bound CXCL8 was detected with biotinylated anti-human CXCL8 antibodies. (C) Binding of NH2-terminally biotinylated CXCL8(1-77) (300 nM) to CHO cells in the presence or absence of an excess CXCL9 peptide was detected by streptavidin-allophycocyanin and flow cytometry. The mean (± SEM) percentage inhibition of binding of CXCL8(1-77) to heparin, HS or cellular GAGs is indicated on the y-axis (n ≥ 4). Statistical comparison of the different competitors with CXCL9(74–103) was performed using the Mann–Whitney U-test (*p < 0.05).

[5] = tested on: CXCL8(1-77) binding to heparan sulfate (HS); assay: Competition with CXCL8 for binding to immobilized HS (ELISA-like); design: species or system human; conditions: CXCL8(1-77) 0-300 nM, n ≥ 4, Figure 3B
Method: as §2, §3

[6] = tested on: CXCL1(1-72) binding to heparan sulfate (HS); assay: Competition with CXCL1 for binding to immobilized HS; design: species or system murine; conditions: n ≥ 3, Figure 6A; for maximum inhibition of CXCL1 binding to HS: maximum achieved; for reduction of CXCL1 binding to HS: mean
Method: as §2
(§4) Competition between CXCL1 and COOH-terminal CXCL9 peptides for binding to immobilized heparan sulfate (HS) (A) and chondroitin sulfate (CS) (B) was performed. […] Bound CXCL1 was detected with biotinylated polyclonal goat anti-mouse CXCL1 antibodies. The mean (± SEM) percentage inhibition of CXCL1 binding to GAGs is indicated on the y-axis (n ≥ 3). Statistical comparison of the different competitors with CXCL9(74–103) was performed using the Mann–Whitney U-test.

[7] = tested on: CXCL1(1-72) binding to chondroitin sulfate (CS); assay: Competition with CXCL1 for binding to immobilized CS; design: species or system murine; conditions: n ≥ 3, Figure 6B; for maximum inhibition of CXCL1 binding to CS: maximum achieved
Method: as §2, §4

[8] = tested on: MSU crystal-induced neutrophil migration; conditions: murine model; cited from earlier work
Excerpt: Because of their essential role for the migration of leukocytes, chemokines and their GPCRs can serve as potential targets for the development of new anti-inflammatory drugs ([24]–[26]). Several neutralizing ligands or antibodies, modified chemokines or small molecules have been developed as antagonists ([27]–[30]). However, only two chemokine receptor antagonists are currently used as therapeutics, namely, Maraviroc (a CCR5 antagonist) and AMD3100 (a CXCR4 antagonist) ([31], [32]). Remarkably, these antagonists are not used as anti-inflammatory drugs, but, respectively, as an inhibitor of hum ...

Substance	affinity for LMWH [1]	affinity for HS [2]	relative affinity for CS ([3]; compared to CXCL9(74-93))	Kd [3]	molar excess over CXCL8 giving 50% reduction of CXCL8 binding to heparin [4]	inhibition of CXCL8 binding on HS-coated plates [5]	maximum inhibition of CXCL1 binding to HS [6]	reduction of CXCL1 binding to HS ([6]; threefold molar excess compared to CXCL1)	maximum inhibition of CXCL1 binding to CS [7]	inhibition of neutrophil extravasation in MSU crystal-induced gout [8]	Kd ([1]; isothermal fluorescence titration, TAMRA-labeled peptide, read-out: affinity (KD value) for LMWH)	Kd ([2]; isothermal fluorescence titration, TAMRA-labeled peptide, biphasic binding isotherm, fit of only the initial high-affinity phase)	reduction of CXCL1 binding to HS ([6]; 10-fold molar excess)	competition for CXCL1 binding to HS [6]	amount needed for same reduction of CXCL1 binding to CS relative to CXCL9(74-103) [7]
74KKKQKNGKKHQKKKVLKVRKSQRSRQKKTT103 [CXCL9(74-103), COOH-terminal peptide of CXCL9]	high and comparable affinity	high and comparable affinity	about fourfold higher affinity for CS	68 ± 4.6 nM	10 fold molar excess	equally efficient in inhibiting CXCL8 binding	72%	43%	63%	able to inhibit neutrophil extravasation					
74KKKQKNGKKHQKKKVLKVRK93 [CXCL9(74-93), COOH-terminal peptide of CXCL9 lacking the 10 COOH-terminal amino acids of CXCL9(74-103)]	high and comparable affinity	high and comparable affinity		296 ± 19 nM	10 fold molar excess	equally efficient in inhibiting CXCL8 binding	52%		52%		63 ± 13 nM	1 nM	39%	less potent competitor than CXCL9(74-103)	three times more
